This data set can be described thus: differential scanning calorimetry (DSC) of amorphous sirolimus. It counts as physicochemical. Conditions: DSC curve for this sample (FIG. 6); about 3 mg, heating rate 2° C./min, -40 to 200° C., nitrogen flow. As to the method: In another test, the amorphous sirolimus is analyzed utilizing differential scanning calorimetry (DSC). Essentially, the purpose of this test is to determine the glass transition temperature of the amorphous sirolimus. In this test, approximately 3 mg of amorphous sirolimus is transferred into a standard aluminum TA-Instrument sample pan and covered. The DSC curve is recorded on a TA-Instruments Q1000 MTDSC equipped with a RCS cooling unit. FIG. 6 illustrates a differential scanning calorimetry (DSC) curve of amorphous sirolimus. […] Based on a number of scans, the glass transition temperatures may be in the range from about 92 degrees C. to about 95 degrees C.
For orientation: DSC measures the heat that a sample takes up or gives off during a temperature scan.

For the compound `CO[C@H]1C[C@@H]2CC[C@@H](C)[C@@](O)(O2)C(=O)C(=O)N2CCCC[C@H]2C(=O)O[C@H]([C@H](C)C[C@@H]2CC[C@@H](O)[C@H](OC)C2)CC(=O)[C@H](C)/C=C(\C)[C@@H](O)[C@@H](OC)C(=O)[C@H](C)C[C@H](C)/C=C/C=C/C=C/1C` [amorphous sirolimus, sirolimus (rapamycin)], the glass transition temperature result was “about 93 degrees C”.

The values are drawn from patent US7393952B2, “Solvent free amorphous rapamycin” (Cordis Corporation, priority 2004, dated 2008).
